Results as given in ChEMBL document CHEMBL1135887, “Substituted pentacyclic carbazolones as novel muscarinic allosteric agents: synthesis and structure-affinity and cooperativity relationships” (J Med Chem, 2002).

What was measured:
[1] = biological target: T1, Muscarinic acetylcholine receptor M1 (Homo sapiens) (UniProt P11229); assay: Logarithm of affinity (log 1/M) at the (N-methyl Scopolamine) NMS-liganded muscarinic acetylcholine receptor M1 by using semiquantitative equilibrium and off-rate assay
T1 sequence (whole entry): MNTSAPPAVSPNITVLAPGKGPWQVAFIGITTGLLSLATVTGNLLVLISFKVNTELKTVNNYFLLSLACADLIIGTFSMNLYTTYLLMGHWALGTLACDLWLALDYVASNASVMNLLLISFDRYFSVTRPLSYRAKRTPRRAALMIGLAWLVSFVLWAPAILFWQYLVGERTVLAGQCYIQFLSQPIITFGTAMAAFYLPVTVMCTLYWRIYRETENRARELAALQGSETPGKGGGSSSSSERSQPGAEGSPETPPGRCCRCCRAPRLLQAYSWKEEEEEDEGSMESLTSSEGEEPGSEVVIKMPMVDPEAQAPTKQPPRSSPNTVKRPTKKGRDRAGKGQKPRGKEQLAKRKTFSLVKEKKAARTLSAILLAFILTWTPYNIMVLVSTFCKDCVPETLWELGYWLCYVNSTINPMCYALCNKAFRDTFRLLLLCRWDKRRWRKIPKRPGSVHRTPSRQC

[2] = biological target: Muscarinic acetylcholine receptor M3 (Homo sapiens) (UniProt P20309); assay: Logarithm of affinity (log 1/M) at the (N-methyl Scopolamine) NMS-liganded muscarinic acetylcholine receptor M3 by using semiquantitative equilibrium and off-rate assay
[3] = biological target: T2, Muscarinic acetylcholine receptor M4 (Homo sapiens) (UniProt P08173); assay: Subtype selectivity and the cooperativity with N-methyl Scopolamine (NMS) at Muscarinic acetylcholine receptor M4
T2 sequence (whole entry): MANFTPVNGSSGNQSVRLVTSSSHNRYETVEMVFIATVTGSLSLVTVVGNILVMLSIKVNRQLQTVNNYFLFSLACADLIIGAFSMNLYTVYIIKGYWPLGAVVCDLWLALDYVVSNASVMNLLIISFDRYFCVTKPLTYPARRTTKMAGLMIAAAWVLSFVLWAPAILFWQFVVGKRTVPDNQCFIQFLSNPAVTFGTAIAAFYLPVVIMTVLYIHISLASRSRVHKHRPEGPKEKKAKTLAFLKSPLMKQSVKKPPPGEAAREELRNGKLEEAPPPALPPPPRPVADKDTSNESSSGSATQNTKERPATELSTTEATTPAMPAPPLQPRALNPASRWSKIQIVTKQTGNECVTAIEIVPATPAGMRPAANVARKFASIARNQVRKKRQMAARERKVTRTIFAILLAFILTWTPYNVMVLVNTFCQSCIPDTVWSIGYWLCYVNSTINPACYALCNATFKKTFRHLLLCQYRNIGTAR

[4] = biological target: Muscarinic acetylcholine receptor M3 (Homo sapiens) (UniProt P20309); assay: Subtype selectivity and the cooperativity with N-methyl Scopolamine (NMS) at Muscarinic acetylcholine receptor M3; Activity range is 1.2-3
[5] = biological target: T2, Muscarinic acetylcholine receptor M4 (Homo sapiens); assay: Logarithm of affinity (log 1/M) at the muscarinic acetylcholine receptor M4 by using semiquantitative equilibrium and off-rate assay
[6] = biological target: T2, Muscarinic acetylcholine receptor M4 (Homo sapiens); assay: Logarithm of affinity (log 1/M) at the (N-methyl Scopolamine) NMS-liganded muscarinic acetylcholine receptor M4 by using semiquantitative equilibrium and off-rate assay
[7] = biological target: T1, Muscarinic acetylcholine receptor M1 (Homo sapiens); assay: Subtype selectivity and the cooperativity with N-methyl Scopolamine (NMS) at Muscarinic acetylcholine receptor M1; Activity range is 1.2-3
[8] = biological target: T3, Muscarinic acetylcholine receptor M2 (Homo sapiens) (UniProt P08172); assay: Subtype selectivity and the cooperativity with N-methyl Scopolamine (NMS) at Muscarinic acetylcholine receptor M2
T3 sequence (whole entry): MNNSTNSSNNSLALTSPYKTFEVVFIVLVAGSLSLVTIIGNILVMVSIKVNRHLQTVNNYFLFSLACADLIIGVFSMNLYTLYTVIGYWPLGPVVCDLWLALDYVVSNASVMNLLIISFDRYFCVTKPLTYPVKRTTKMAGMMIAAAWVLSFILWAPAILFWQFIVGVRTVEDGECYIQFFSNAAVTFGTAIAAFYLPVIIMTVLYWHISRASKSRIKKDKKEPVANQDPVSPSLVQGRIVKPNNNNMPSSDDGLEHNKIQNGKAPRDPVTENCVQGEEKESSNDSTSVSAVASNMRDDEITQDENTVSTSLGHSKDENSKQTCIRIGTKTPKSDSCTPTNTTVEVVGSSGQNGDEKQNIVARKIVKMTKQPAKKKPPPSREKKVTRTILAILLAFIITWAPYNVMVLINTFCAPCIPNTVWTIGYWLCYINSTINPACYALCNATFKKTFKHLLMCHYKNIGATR

[9] = biological target: Muscarinic acetylcholine receptor M3 (Homo sapiens) (UniProt P20309); assay: Logarithm of affinity (log 1/M) at the muscarinic acetylcholine receptor M3 by using semiquantitative equilibrium and off-rate assay
[10] = biological target: T3, Muscarinic acetylcholine receptor M2 (Homo sapiens); assay: Logarithm of affinity (log 1/M) at the muscarinic acetylcholine receptor M2 by using semiquantitative equilibrium and off-rate assay
[11] = biological target: T1, Muscarinic acetylcholine receptor M1 (Homo sapiens); assay: Logarithm of affinity (log 1/M) at the free muscarinic acetylcholine receptor M1 by using semiquantitative equilibrium and off-rate assay
[12] = biological target: T3, Muscarinic acetylcholine receptor M2 (Homo sapiens); assay: Logarithm of affinity (log 1/M) at the (N-methyl Scopolamine) NMS-liganded muscarinic acetylcholine receptor M2 by using semiquantitative equilibrium and off-rate assay
[13] = biological target: T1, Muscarinic acetylcholine receptor M1 (Homo sapiens); assay: Subtype selectivity and the cooperativity with N-methyl Scopolamine (NMS) at Muscarinic acetylcholine receptor M1; Activity range is 0.2-0.8
[14] = biological target: T2, Muscarinic acetylcholine receptor M4 (Homo sapiens); assay: Subtype selectivity and the cooperativity with N-methyl Scopolamine (NMS) at Muscarinic acetylcholine receptor M4; Activity range is 1.2-3
[15] = biological target: Muscarinic acetylcholine receptor M3 (Homo sapiens) (UniProt P20309); assay: Subtype selectivity and the cooperativity with N-methyl Scopolamine (NMS) at Muscarinic acetylcholine receptor M3; […]
[16] = biological target: T3, Muscarinic acetylcholine receptor M2 (Homo sapiens); assay: Subtype selectivity and the cooperativity with N-methyl Scopolamine (NMS) at Muscarinic acetylcholine receptor M2; Activity range is 1.2-3
[17] = biological target: T2, Muscarinic acetylcholine receptor M4 (Homo sapiens); assay: Subtype selectivity and the cooperativity with N-methyl Scopolamine (NMS) at Muscarinic acetylcholine receptor M4; Activity range is 0.2-0.8
[18] = biological target: T1, Muscarinic acetylcholine receptor M1 (Homo sapiens); assay: Subtype selectivity and the cooperativity with N-methyl Scopolamine (NMS) at Muscarinic acetylcholine receptor M1
[19] = biological target: T3, Muscarinic acetylcholine receptor M2 (Homo sapiens); assay: Subtype selectivity and the cooperativity with N-methyl Scopolamine (NMS) at muscarinic M2 receptor; Activity range is 0.81-1.19
[20] = biological target: Muscarinic acetylcholine receptor M3 (Homo sapiens) (UniProt P20309); assay: Subtype selectivity and the cooperativity with N-methyl Scopolamine (NMS) at muscarinic acetylcholine receptor M3; Activity range is 0.2-0.8
[21] = biological target: T1, Muscarinic acetylcholine receptor M1 (Homo sapiens); assay: Subtype selectivity and the cooperativity with N-methyl Scopolamine (NMS) at Muscarinic acetylcholine receptor M1,activity range is 0.2-0.8.
[22] = biological target: T2, Muscarinic acetylcholine receptor M4 (Homo sapiens); assay: Subtype selectivity and the cooperativity with N-methyl Scopolamine (NMS) at Muscarinic acetylcholine receptor M4; activity range is 0.2-0.8.
[23] = biological target: T3, Muscarinic acetylcholine receptor M2 (Homo sapiens); assay: Subtype selectivity and the cooperativity with N-methyl Scopolamine (NMS) at Muscarinic acetylcholine receptor M2,activity range is 1.2-3.
[24] = biological target: Muscarinic acetylcholine receptor M3 (Homo sapiens) (UniProt P20309); assay: Subtype selectivity and the cooperativity with N-methyl Scopolamine (NMS) at Muscarinic acetylcholine receptor M3; activity ranges is 0.2-0.8.

Sequence of Muscarinic acetylcholine receptor M3 (Homo sapiens) (P20309 whole entry, looked up): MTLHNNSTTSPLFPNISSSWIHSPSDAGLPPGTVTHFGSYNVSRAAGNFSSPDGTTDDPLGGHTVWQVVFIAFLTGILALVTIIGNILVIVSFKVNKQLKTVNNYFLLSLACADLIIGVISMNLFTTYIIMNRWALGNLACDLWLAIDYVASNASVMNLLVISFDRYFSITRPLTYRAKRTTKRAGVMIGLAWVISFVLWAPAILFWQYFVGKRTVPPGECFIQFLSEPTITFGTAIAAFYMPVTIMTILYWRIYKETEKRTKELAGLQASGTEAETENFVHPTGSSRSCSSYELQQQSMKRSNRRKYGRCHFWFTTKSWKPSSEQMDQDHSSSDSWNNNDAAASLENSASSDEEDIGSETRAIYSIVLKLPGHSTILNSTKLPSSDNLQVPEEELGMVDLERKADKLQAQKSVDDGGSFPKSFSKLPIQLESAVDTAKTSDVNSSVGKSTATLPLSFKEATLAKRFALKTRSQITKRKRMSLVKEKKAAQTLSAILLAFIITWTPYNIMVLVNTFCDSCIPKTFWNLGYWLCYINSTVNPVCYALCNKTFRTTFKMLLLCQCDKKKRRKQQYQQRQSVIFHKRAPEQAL

| Log 1/M [1] | Log 1/M [2] | Log 1/M [5] | Log 1/M [6] | Log 1/M [9] | Log 1/M [10] | Log 1/M [11] | Log 1/M [12] | Structure (SMILES) | other results |
| --- | --- | --- | --- | --- | --- | --- | --- | --- | --- |
| 6.44 | 5.53 | 5.9 | 6.57 | 5.19 | 6.28 | 6.19 | 6.97 | COc1cc2c3c4c(cc5c3n(c2cc1OC)C(=O)CC5)CCNC4 | Cooperativity [3]: > 3; Cooperativity [4]: 3; Cooperativity [7]: 3; Cooperativity [8]: > 3 |
| 5.81 | 5.15 | 4.8 | 6.05 | 5.2 | 6.15 | 6.05 | 6.47 | COc1cc2c3c4c(cc5c3n(c2cc1OC)C(=O)CC5)CNCC4 | Cooperativity [13]: 0.8; Cooperativity [14]: 3; Cooperativity [15]: 1.19; Cooperativity [16]: 3 |
| 5.62 | 5.09 | 5.55 | 6 | 5.64 | 6.44 | 6.32 | 6.43 | COC(=O)c1ccc2c(c1)c1c3c(cc4c1n2C(=O)CC4)CNCC3 | Cooperativity [17]: 0.8; Cooperativity [18]: < 0.2; Cooperativity [19]: 1.19; Cooperativity [20]: 0.8 |
| 5.99 | 5.06 | 5.29 | 5.73 | 5.61 | 6.18 | 6.06 | 6.31 | O=C1CCc2cc3c(c4c5cc6c(cc5n1c24)OCO6)CCNC3 | Cooperativity [21]: 0.8; Cooperativity [22]: 0.8; Cooperativity [23]: 3; Cooperativity [24]: 0.8 |
